# Experimental data: patent US10851069B2, “Compositions of crystallized hydrophobic compounds and methods of making and using same” (Massachusetts Institute of Technology, priority 2016, dated 2020)
# Tested on: host (mouse) alpha smooth muscle actin (αSMact)
# Assay: qPCR of explanted capsules, host fibrosis marker
# Type: in vivo
# Settings: explanted at approximately 430 (amorphous) or 460 (crystalline) days post-transplant
# Description: Total RNA was isolated from fibrosed spheres (with adhered tissue and immune overgrowth, if present), liquid nitrogen snap-frozen immediately following excision, using TRIzol (Invitrogen, Carlsbad, Calif.) according to the manufacturer's instructions. In addition, to help ensure complete tissue disruption, we also employed strong mechanical disruption with a Polytron homogenizer. Thus, gene expression signatures shown throughout are proportional and representative of the entire cell population present on and/or around retrieved materials. […] Mouse (5′-[…]-3′ (SEQ. ID. No.:1); reverse: 5′-CGGGTTCCGCTGTGTAAG-3′ (SEQ. ID. No.:2)) and rat (5′-CTCTCGTGCCATGTGAACC-3′ (SEQ. ID. No.:3); reverse: 5′-[…]-3′ (SEQ. ID. No.:4)) Pdx1 primers were designed using Primer Express software (Applied Biosystems, Carlsbad, Calif., USA) and evaluated using LaserGene software (DNAStar, Madison, Wis., USA) to ensure species rat (encapsulated islet) or mouse (host)-specificity, and normalized to mouse (5′-[…]-3′ (SEQ. ID. No.:5); reverse: 5′-[…]-3′ (SEQ. ID. No.:6)) and rat (5′-[…]-3′ (SEQ. ID. No.:7); reverse: 5′-[…]-3′ (SEQ. ID. No.:8)) Beta-actin, respectively. […] Results were analyzed using the comparative CT (ΔΔCT) method as described by the manufacturer. […]
smiles,measurement,value
"COc1ccc(COc2ccc(Cc3cnc(N)nc3N)cc2OC)cc1 [GW2580, 5-[[3-Methoxy-4-[(4-methoxyphenyl)methoxy]phenyl]methyl]-2,4-pyrimidinediamine]","lower αSMact expression, crystal versus amorphous capsules",74%
